Laboratory results reported in ChEMBL document CHEMBL1201862, “PubChem BioAssay data set” (2004).
Where a name gives a salt, the structure may show the parent alone. Calls of active or inactive are those of the source.

Experiments:
[1] = molecular target: T1, E3 ubiquitin-protein ligase XIAP (Homo sapiens, UniProt P98170); experiment: SAR analysis of Antagonists of XIAP-Bir3 domain of IAP-family anti-apoptotic proteins. [Related pubchem assays (depositor defined):AID1018, AID1449, AID1513, AID1514, AID1638]
[2] = molecular target: T1, E3 ubiquitin-protein ligase XIAP; experiment: SAR analysis of Antagonists of IAP-family anti-apoptotic proteins. [Related pubchem assays (depositor defined):AID1018, AID1449, AID1513, AID1514, AID1638]
[3] = molecular target: T2, Tyrosine-protein phosphatase non-receptor type 7 (Homo sapiens, UniProt P35236); experiment: inhibition of hematopoietic tyrosine phosphatase HePTP – biochemical, set 2, SAR follow-up (AID 449736); assay type: functional
T2 sequence (P35236 whole entry): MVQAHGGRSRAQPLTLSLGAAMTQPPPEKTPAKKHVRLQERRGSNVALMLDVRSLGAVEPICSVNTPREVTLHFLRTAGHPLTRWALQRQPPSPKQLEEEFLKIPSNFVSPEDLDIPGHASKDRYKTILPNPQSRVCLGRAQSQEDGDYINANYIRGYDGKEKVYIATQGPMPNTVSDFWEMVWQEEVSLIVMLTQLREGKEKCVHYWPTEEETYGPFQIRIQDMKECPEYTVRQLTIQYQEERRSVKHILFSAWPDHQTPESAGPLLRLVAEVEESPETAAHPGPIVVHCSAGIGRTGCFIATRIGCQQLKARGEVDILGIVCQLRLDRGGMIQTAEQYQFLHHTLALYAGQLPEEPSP

[4] = molecular target: Signal transducer and activator of transcription 3 (Homo sapiens, UniProt P40763); experiment: STAT3 blockade with qPCR and toxicity readouts – cell-based, STAT1 panel, cytotoxicity, late-stage follow-up, panel member STAT3 Inhibition (AID 2078)
[5] = molecular target: Signal transducer and activator of transcription 1-alpha/beta (Homo sapiens, UniProt P42224); experiment: STAT3 blockade with qPCR and toxicity readouts – cell-based, STAT1 panel, cytotoxicity, late-stage follow-up, panel member STAT1 Inhibition (AID 2078)
[6] = molecular target: Voltage-dependent T-type calcium channel subunit alpha-1H (Homo sapiens, UniProt O95180); experiment: human CACNA1H calcium influx blockade – cell-based, synthetic library set 2, HEK293 HH8, Fluo-4, SAR follow-up (AID 493023); assay type: functional
[7] = molecular target: T3, Sphingosine 1-phosphate receptor 4 (Homo sapiens, UniProt O95977); experiment: Late-stage fluorescence dose response cell-based assay to identify agonists of the Sphingosine 1-Phosphate Receptor 4 (S1P4): purchased compounds EC50. [Related pubchem assays (depositor defined):AID1509, AID1523, AID1563, AID1686, AID1701, AID1801]; assay type: functional
T3 sequence (O95977 whole entry): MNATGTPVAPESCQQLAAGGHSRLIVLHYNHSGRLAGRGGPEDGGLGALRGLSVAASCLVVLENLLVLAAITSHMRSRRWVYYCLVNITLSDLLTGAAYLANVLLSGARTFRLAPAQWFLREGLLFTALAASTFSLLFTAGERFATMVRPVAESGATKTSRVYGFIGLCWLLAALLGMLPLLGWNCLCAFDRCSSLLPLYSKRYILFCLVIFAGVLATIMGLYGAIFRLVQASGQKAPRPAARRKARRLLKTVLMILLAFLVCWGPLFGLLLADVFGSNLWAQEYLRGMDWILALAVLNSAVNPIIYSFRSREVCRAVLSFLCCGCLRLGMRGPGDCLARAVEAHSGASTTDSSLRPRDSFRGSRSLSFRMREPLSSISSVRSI

[8] = molecular target: Troponin, cardiac muscle (Homo sapiens, UniProt P19429+P45379+P63316); experiment: Fluorescence-based biochemical high throughput dose response assay for activators of the calcium sensitivity of cardiac Regulated Thin Filaments (RTF). [Related pubchem assays (depositor defined):AID493008, AID493018, AID504382, AID504383]; assay type: protein-complex assay
[9] = molecular target: Protein-arginine deiminase type-4 (Homo sapiens, UniProt Q9UM07); experiment: IC50 against protein arginine deiminase 4 – biochemical, fluorescence readout, dose response (AID 492970)
[10] = molecular target: T4, Replicative DNA helicase DnaB (Mycobacterium tuberculosis, UniProt P9WMR3); experiment: DnaB intein splicing inhibitors, dose response, biochemical, cell-free fluorescence (AID 449749); assay type: functional
T4 sequence (P9WMR3 whole entry): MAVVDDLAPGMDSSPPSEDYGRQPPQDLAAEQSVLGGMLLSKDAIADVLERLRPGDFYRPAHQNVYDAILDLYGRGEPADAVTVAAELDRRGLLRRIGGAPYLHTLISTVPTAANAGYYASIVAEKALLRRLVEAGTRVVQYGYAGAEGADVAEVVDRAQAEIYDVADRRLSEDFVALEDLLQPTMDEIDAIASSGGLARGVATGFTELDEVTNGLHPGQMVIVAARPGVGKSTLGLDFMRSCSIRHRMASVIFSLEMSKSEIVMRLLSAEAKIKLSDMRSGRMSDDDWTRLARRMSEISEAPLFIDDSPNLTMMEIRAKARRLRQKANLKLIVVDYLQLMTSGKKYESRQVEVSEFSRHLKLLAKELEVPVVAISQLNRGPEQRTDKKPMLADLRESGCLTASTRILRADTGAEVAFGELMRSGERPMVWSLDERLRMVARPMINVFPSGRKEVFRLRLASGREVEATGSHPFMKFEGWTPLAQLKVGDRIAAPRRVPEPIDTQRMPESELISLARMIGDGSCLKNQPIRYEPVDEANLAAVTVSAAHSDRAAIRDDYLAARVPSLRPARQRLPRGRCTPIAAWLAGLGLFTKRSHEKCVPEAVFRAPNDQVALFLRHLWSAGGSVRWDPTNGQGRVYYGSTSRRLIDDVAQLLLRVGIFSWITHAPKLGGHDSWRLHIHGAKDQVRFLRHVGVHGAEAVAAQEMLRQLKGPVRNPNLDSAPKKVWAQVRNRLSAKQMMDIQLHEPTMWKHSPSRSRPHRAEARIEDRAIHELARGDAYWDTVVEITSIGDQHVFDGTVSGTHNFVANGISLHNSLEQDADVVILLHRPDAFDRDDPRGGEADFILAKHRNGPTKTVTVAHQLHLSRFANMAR

[11] = molecular target: T5, Protein RecA (Mycobacterium tuberculosis, UniProt P9WHJ3); experiment: Fluorescence Cell-Free Homogeneous Dose Retest to Identify Inhibitors of RecA-Intein Splicing Activity. [Related pubchem assays (depositor defined):AID2097, AID2223, AID489010, AID492950]; assay type: functional
T5 sequence (P9WHJ3 whole entry): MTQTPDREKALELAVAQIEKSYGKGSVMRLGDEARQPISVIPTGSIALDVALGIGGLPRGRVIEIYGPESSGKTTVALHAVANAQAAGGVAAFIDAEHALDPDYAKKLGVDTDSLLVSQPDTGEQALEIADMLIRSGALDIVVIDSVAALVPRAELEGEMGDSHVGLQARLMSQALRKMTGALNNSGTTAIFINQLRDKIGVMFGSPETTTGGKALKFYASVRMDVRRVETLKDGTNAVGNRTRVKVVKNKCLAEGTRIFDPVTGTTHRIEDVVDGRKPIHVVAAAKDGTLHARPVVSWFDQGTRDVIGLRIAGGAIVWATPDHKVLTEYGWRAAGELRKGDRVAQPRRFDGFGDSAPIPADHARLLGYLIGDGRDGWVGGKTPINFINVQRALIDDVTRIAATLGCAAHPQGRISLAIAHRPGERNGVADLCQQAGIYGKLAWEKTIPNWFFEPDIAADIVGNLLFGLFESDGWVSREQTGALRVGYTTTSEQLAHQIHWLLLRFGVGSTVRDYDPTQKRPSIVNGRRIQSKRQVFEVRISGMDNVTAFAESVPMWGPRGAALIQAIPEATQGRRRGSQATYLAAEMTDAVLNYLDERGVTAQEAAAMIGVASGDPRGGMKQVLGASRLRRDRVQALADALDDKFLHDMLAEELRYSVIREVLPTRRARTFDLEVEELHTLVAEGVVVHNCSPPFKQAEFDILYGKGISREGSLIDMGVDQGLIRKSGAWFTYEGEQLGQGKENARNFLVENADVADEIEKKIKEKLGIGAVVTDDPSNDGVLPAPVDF

[12] = reduction of Shn3 3'UTR-driven luciferase in osteoblasts – cell-based, Clone20 osteoblasts, firefly luciferase, cherry-picked, dose response (AID 624132); assay type: functional;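 note: firefly luciferase luminescence from reporter carrying the Shn3 3'UTR in osteoblasts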
[13] = loss of viability in HepG2 cells – cell-based, CellTiter-Glo, cherry-picked, cytotoxicity control for Shn3 inhibitor project, dose response (AID 624134); assay type: functional
[14] = non-specific 3'UTR reporter inhibition in Clone20-Shn3RL – cell-based, Renilla luciferase, cherry-picked, counter-screen for Shn3 inhibitor project, dose response (AID 624133); assay type: functional
[15] = molecular target: T6, Caspase-6 (Homo sapiens, UniProt P55212); experiment: inhibition of CASP6 peptide cleavage – biochemical, VEID-R110 fluorescence, cherry-pick, dose response (AID 720632)
T6 sequence (P55212 whole entry): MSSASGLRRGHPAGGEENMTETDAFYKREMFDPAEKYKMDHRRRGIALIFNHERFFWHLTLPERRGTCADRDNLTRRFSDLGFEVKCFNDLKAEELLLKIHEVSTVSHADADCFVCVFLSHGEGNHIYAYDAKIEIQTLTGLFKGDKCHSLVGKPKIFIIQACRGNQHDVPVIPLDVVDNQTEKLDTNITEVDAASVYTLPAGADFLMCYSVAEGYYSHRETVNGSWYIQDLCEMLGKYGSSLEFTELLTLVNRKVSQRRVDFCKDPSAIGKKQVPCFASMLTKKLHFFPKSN

[16] = rise of 2N DNA cells, HeLa – IC50, dose response (AID 1117349); assay type: functional, cell-based
[17] = rise of 4N DNA cells, HeLa – IC50, dose response (AID 1117351); assay type: functional, cell-based

CN[C@@H](C)C(=O)NC1CCCN(CC(=O)NC2CCc3ccccc3C2)C1=O (some centres not stated)
IC50 [1]: > 100 µM (inactive)
IC50 [2]: > 100 µM (inactive)

Cc1ccc(-n2c(N)c(C(=O)N3CCN(c4ccccc4F)CC3)sc2=S)cc1
IC50 [3]: > 100 µM (inactive)

c1ccc(CC2CCN(c3ncnc4sc5c(c34)CCC5)CC2)cc1
IC50 [4]: 20 µM (inactive)
IC50 [5]: > 55.7 µM (inactive)

CC(C)(C)CCN1CCC[C@H](NC(=O)c2ccc(Cl)cc2Cl)C1
EC50 [6]: 10 µM (active)

Cc1ccc(Oc2ncc(Cl)cc2Cl)c([N+](=O)[O-])n1
EC50 [7]: > 50 µM (inactive)

COc1ccc(/C=N/NC(=O)c2cccnc2)cc1CN1CCOCC1
EC50 [8]: > 71.5 µM (inactive)

COc1ccc(Cc2nccc3cc(OC)c(OC)cc23)cc1OC [PAPAVERINE HYDROCHLORIDE]
IC50 [9]: 39 µM (inactive)
AC50 [10]: 5.66 µM (active)
EC50 [11]: 3.01 µM (active)
AC50 [12]: 2.48 µM (active)
AC50 [13]: 8.06 µM (active)
AC50 [14]: 20.8 µM (active)
AC50 [15]: 22 µM (active)
IC50 [16]: > 10 µM (inactive)
IC50 [17]: > 10 µM (inactive)
